Experimental findings from patent US20120302609A1, “Pyrazolines for the Modulation of PKM2” (Dynamix Pharmaceuticals LTD., priority 2011, published 2012) are described below.

As a reminder, the AC50 is the concentration giving half of the maximal activity seen.

The target of one test is T1, PKM2, human recombinant (Homo sapiens, UniProt P14618).
T1 construct: purchased BPS 50295
Nature of the test: PKM2 enzymatic activity assay (Kinase-Glo Plus luminescence).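 As to Max activity Group: percent increase over no-compound signal after subtracting the no-PKM2 background.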 The following applies: for AC50: 0.1 nM PKM2, 0.1 mM ADP, 0.5 mM PEP, 1 hour, room temperature, read-out: AC50 group; for Emax: 1 h, read-out: Max activity Group; for Emax / Max activity Group: maximum percent activity, luminescence without compound = 0% activity. The class given is biochemical. How it is done: PKM2 performs the following enzymatic reaction, where the PKM2 substrates, PEP (phosphoenolpyruvate) and ADP, are converted to pyruvate and ATP as follows:
All of the enzymatic reactions were conducted in duplicates at room temperature for 1 hour in a 50 μL mixture containing: • PKM2 assay buffer (50 mM Imidazole, pH 7.2; 7 mM MgCl2; 50 mM KCl; 0.01% Tween; • and 0.05% BSA), 0.1 mM ADP, 0.5 mM PEP, 0.1 nM PKM2 enzyme (PKM2, human recombinant (BPS catalog number 50295)) and the indicated test compound. Fructose 1,6 biphosphat e, (FBP (Sigma)) was used as a positive control for activation at concentration of 0.5 mM. After enzymatic reactions, 50 μL of Kinase-Glo® Plus reagent (Promega kit) was added to each well and luminescence was measured using a BioTek Synergy™ 2 microplate reader.
PKM2 activity assays were performed in duplicates at each concentration. The luminescence data were analyzed using the computer software, GraphPad PRISM®. In the absence of the compound, the luminescence was defined as 0% activity. The percent activity in the presence of each compound was calculated according to the following equation:
% Activity=[(L−Lb)/(Lt−Lb)−1]×100%
where L=the luminescence in the presence of the test compound, Lb=the luminescence in the absence of PKM2, and Lt=the luminescence intensity in the absence of the test compound. The % activity values versus a series of compound concentrations were plotted using non-linear regression analysis of Sigmoidal dose-response curve generated with the equation Y=B+(T−B)/1+10^((LogEC50-X)×Hill Slope), where Y=percent activity, B=minimum percent activity, T=maximum percent activity, X=logarithm of compound and Hill Slope=slope factor or Hill coefficient. The AC50 values, shown in Table 2 were determined for the indicated test compounds as the concentration causing a half-maximal percent activity.
(In general: Kinase-Glo measures the ATP left after a reaction by luminescence.)

A further test concerns H1299 (lung). Nature of the test: Cell proliferation assay (CellTiter-Glo Luminescent). The test is classed as cell-based, human. The note with it: 96 hr. How it is done: 1. Cells were grown according to the ATCC conditions. 2. Cell feeding (passaging) was timed such that the cells were in exponential growth phase at the time of the assay.
3. On day 1, H1299 cells were counted. Cell numbers were adjusted to the desired cell concentration in Media 1: RPMI 1640 Invitrogen 11879020 (that contained no glucose or pyruvate) with 10% FBS, and 1 mM D-Glucose (4 μl of 2.5 M D-glucose G8769 was added in preparing 10 ml RPMI media with 1 mM glucose). A 200 μl of H1299 cell suspension was added to appropriate wells in the 96-well plates, and incubated at 37° C. in the CO2 cell incubator under normal growing conditions for overnight. 4. On day 2, a 100 mM stock concentration of test compounds in 100% DMSO was prepared and serially diluted with 100% DMSO to 33.33 mM, 11.11 mM, and 3.7 mM. A 1:1000 dilution was made to each concentration in media 1 (yielding 0.1% final DMSO concentration). The media was aspirated completely from the cell plate. Each 100 μl of the following solutions (100 μM, 33.33 μM, 11.11 μM, and 3.7 μM) was added to the cells. DMSO in a final concentration of 0.1%, and media without DMSO, were added to the cells and used as a negative control. Empty wells around the experimental wells were filled with PBS. The plate was sealed with parafilm to reduce evaporation. 5. The plate was incubated under normal conditions (5% CO2, and 95% air), for 96 hours at 37° C. 6. On day 6 (after 96 hr incubation), the plate was equilibrated to room temperature for approximately 30 minutes. A 100 μl of CellTiter-Glo Reagent was added in each well of the plate. Contents were mixed for 2 minutes on an orbital shaker to induce cell lysis. The plate was incubated at room temperature for 10 minutes to stabilize luminescent signal. Luminescence was recorded with Flexstation 3.
Unless noted otherwise, proliferation of control or compound treated H1299 cells was measured using CellTiter-Glo Luminescent assay following 96 hr incubation of the cells with and without test compounds. The AC50 values, shown in Table 3, were coded according to follows: A: <3 μM; B: 3-10 μM; C: 10-20 μM; or D: >20 μM.
In general terms: ATP-based viability assays read luminescence as a measure of living cells.

The subject of a further test is 786-O (kidney). Described as above. The following applies: Homo sapiens, 786-0, 1 mM glucose, 96 hr. The test is classed as cell-based.
The mark [1] stands for this setting: Homo sapiens, NCI-H1299, 1 mM glucose.

SMILES strings stand for the structures. A value given as a limit tells only on which side of the number the result lay.

T1 sequence (P14618 whole entry): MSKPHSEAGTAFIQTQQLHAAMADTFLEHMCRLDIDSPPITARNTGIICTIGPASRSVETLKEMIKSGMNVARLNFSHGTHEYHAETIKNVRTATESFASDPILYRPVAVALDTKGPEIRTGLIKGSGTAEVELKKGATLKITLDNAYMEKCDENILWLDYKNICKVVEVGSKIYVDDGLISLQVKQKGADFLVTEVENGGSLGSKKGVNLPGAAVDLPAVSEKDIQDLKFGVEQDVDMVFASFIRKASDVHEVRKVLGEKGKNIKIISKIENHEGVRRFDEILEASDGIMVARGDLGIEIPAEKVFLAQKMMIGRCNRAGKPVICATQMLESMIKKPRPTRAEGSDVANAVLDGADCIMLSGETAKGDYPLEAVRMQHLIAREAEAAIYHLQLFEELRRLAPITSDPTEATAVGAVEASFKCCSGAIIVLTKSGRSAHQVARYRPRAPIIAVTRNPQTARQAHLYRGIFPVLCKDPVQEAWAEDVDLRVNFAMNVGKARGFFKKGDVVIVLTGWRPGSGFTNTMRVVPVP

As for `COc1ccc(C2CC(c3ccc(NS(=O)(=O)c4cccc(OC)c4)cc3)=NN2C(C)=O)cc1` (racemic) [Compound 18A, N-(4-(1-Acetyl-5-(4-methoxyphenyl)-4,5-dihydro-1H-pyrazol-3-yl)phenyl)-3-methoxy benzenesulfonamide], on PKM2, human recombinant, the AC50 is at most 1 µM and the Emax lay in the range of 130 to 200%. In addition, the AC50 in the test on H1299 (lung) (setting [1]) is over 20 µM.
Turning to `COc1ccc(C2CC(c3ccc(NS(=O)(=O)c4ccc(Cl)cc4)cc3)=NN2C(C)=O)cc1` (racemic) [Compound 26A, N-(4-(1-Acetyl-5-(4-methoxyphenyl)-4,5-dihydro-1H-pyrazol-3-yl)phenyl)-4-chloro benzenesulfonamide], the AC50 was at most 1 µM at PKM2, human recombinant; 3 to 10 µM in the test on 786-O (kidney); over 20 µM with H1299 (lung) (setting [1]). Also, the Emax at PKM2, human recombinant was at most 130%.
For the compound `COc1ccc(C2CC(c3ccc(NS(=O)(=O)c4cccc(OC)c4)cc3)=NN2C(C)=O)cc1` (single isomer, unassigned) [Compound 29A], in the test with H1299 (lung) (setting [1]), the AC50 is over 20 µM.
For `CC(=O)N1N=C(c2ccc(NS(=O)(=O)c3ccc(F)cc3)cc2)CC1c1ccc(F)cc1` (single isomer, unassigned) [Compound 36A], the AC50 on PKM2, human recombinant was at most 1 µM; with 786-O (kidney), 3 to 10 µM; in the test on H1299 (lung) (setting [1]) it was over 20 µM.
As to `COc1ccc(C2CC(c3ccc(NS(=O)(=O)c4ccc(Cl)cc4)cc3)=NN2C(C)=O)cc1` (single isomer, unassigned) [Compound 37A], the AC50 with H1299 (lung) (setting [1]) was over 20 µM.
Turning to `COc1ccc(C2CC(c3ccc(NS(=O)(=O)c4ccc(Cl)cc4)cc3)=NN2C(C)=O)cc1` (single isomer, unassigned) [Compound 38A], the AC50 with H1299 (lung) (1 mM glucose) was over 20 µM.
`COc1ccc(C2CC(c3ccc(NS(=O)(=O)c4ccc(OC)cc4)cc3)=NN2C(C)=O)cc1` (single isomer, unassigned) [Compound 39A]: at PKM2, human recombinant, the half-maximal activity concentration (AC50) is at most 1 µM and the “Max activity Group” value is recorded as “C (C: ≦130%)”. In the test on H1299 (lung) (setting [1]), this compound registered an AC50 of over 20 µM.
Turning to `COc1ccc(C2CC(c3ccc(NS(=O)(=O)c4ccc(OC)cc4)cc3)=NN2C(C)=O)cc1` (single isomer, unassigned) [Compound 40A], the AC50 was at most 1 µM on PKM2, human recombinant; over 20 µM with H1299 (lung) (1 mM glucose); over 20 µM in the test on H1299 (lung) (Complete media). Further, the “Max activity Group” value at PKM2, human recombinant is on record as “A (A: ≧200%)”.
For `COc1ccc(C2CC(c3ccc(NS(=O)(=O)c4ccc(C(F)(F)F)cc4)cc3)=NN2C(C)=O)cc1` (stereo not shown) [Compound 21A, N-(4-(1-Acetyl-5-(4-methoxyphenyl)-4,5-dihydro-1H-pyrazol-3-yl)phenyl)-4-(trifluoromethyl)benzenesulfonamide], the AC50 was at most 1 µM on PKM2, human recombinant; 3 to 10 µM with 786-O (kidney); 10 to 20 µM with H1299 (lung) (setting [1]). Moreover, on PKM2, human recombinant, the Emax lay in the range of 130 to 200%.
As to `COc1ccc(C2CC(c3ccc(NS(=O)(=O)c4ccc(F)cc4)cc3)=NN2C(C)=O)cc1Cl` (stereo not shown) [Compound 32A, N-(4-(1-Acetyl-5-(3-chloro-4-methoxyphenyl)-4,5-dihydro-1H-pyrazol-3-yl)phenyl)-4-fluorobenzenesulfonamide], the AC50 was 3 to 10 µM with 786-O (kidney) and over 20 µM in the test on H1299 (lung) (setting [1]).
In the case of `COc1ccc(C2CC(c3ccc(NS(=O)(=O)c4cccc(F)c4)cc3)=NN2C(C)=O)cc1` (stereo not shown) [Compound 33A, N-(4-(1-Acetyl-5-(4-methoxyphenyl)-4,5-dihydro-1H-pyrazol-3-yl)phenyl)-3-fluoro benzenesulfonamide], at PKM2, human recombinant, the AC50 was at most 1 µM and the Emax was 130 to 200%. The same compound showed an AC50 in the test with H1299 (lung) (setting [1]) of over 20 µM.
For `COc1ccc(C2CC(c3ccc(NS(=O)(=O)c4cccc(C(F)(F)F)c4)cc3)=NN2C(C)=O)cc1` (stereo not shown) [Compound 34A, N-(4-(1-Acetyl-5-(4-methoxyphenyl)-4,5-dihydro-1H-pyrazol-3-yl)phenyl)-3-(trifluoromethyl)benzenesulfonamide], the AC50 is 3 to 10 µM in the test with 786-O (kidney) and over 20 µM in the test with H1299 (lung) (setting [1]).
On to `CC(=O)N1N=C(c2ccc(NS(=O)(=O)c3ccc(F)cc3)cc2)C[C@@H]1c1ccc(C)cc1` [Compound 41A, (R)—N-(4-(1-Acetyl-5-(p-tolyl)-4,5-dihydro-1H-pyrazol-3-yl)phenyl)-4-fluorobenzene sulfonamide], for which the AC50 is 3 to 10 µM with 786-O (kidney) and 10 to 20 µM in the test on H1299 (lung) (setting [1]).
As for `COc1cccc([C@H]2CC(c3ccc(NS(=O)(=O)c4ccc(F)cc4)cc3)=NN2C(C)=O)c1` [Compound 42A, (R)—N-(4-(1-Acetyl-5-(3-methoxyphenyl)-4,5-dihydro-1H-pyrazol-3-yl)phenyl)-4-fluoro benzenesulfonamide], the AC50 in the test with 786-O (kidney) fell in the range of 10 to 20 µM.
As for `COc1ccc(S(=O)(=O)Nc2ccc(C3=NN(C(C)=O)C(c4ccc(F)cc4)C3)cc2)cc1` (stereo not shown) [Compound 45A], the AC50 at PKM2, human recombinant is at most 1 µM; in the test with 786-O (kidney) it was 3 to 10 µM; with H1299 (lung) (setting [1]) it was over 20 µM. Also, the Emax on PKM2, human recombinant was at most 130%.
Take `COc1ccccc1C1CC(c2ccc(NS(=O)(=O)c3ccc(F)cc3)cc2)=NN1C(C)=O` (stereo not shown) [Compound 47A, N-(4-(1-Acetyl-5-(2-methoxyphenyl)-4,5-dihydro-1H-pyrazol-3-yl)phenyl)-4-fluoro benzenesulfonamide]: the AC50 is 3 to 10 µM in the test with 786-O (kidney) and over 20 µM with H1299 (lung) (setting [1]).
